Where a name gives a salt, the structure may show the parent alone. Read-outs that look alike come from different tables or passages of the source. Marks after values point to notes of the source that are not given here.
Key:
[1] = test system: Hep3B (human hepatocarcinoma cell line) xenograft; conditions: for Number of Animals (Survived/Total): NU/NU mice, gavage qd 14 days, palbociclib 50 mg/kg; for growth of tumor (tumor weight) versus vehicle, in words / growth of xenograft tumor (tumor volume) versus vehicle, in words: at the test dose; for TV (mm^3) d14: d14, Mean ± SD; for TV (mm^3) d14 / Tumor Weight: n = 7; for Tumor Weight / Tumor Weight Inhibition Rate (%): end of test; for Tumor Weight: Mean ± SD
Source text: 42 NU/NU mouse, female, 42-48 days old, weighing 22-26 g.
Hep3B cells were resuscitated and passaged in vitro to the desired number of cells. The cells were counted under a microscope, and diluted with serum-free medium and matrix gel (1:1) to adjust the number of tumor cells to approximately 5×10^7 cells/mL. The cell suspension was placed in an ice bath.
Hep3B cell suspension was withdrawn with a sterile syringe for inoculation into subcutaneous tissue in the axilla of the forelimb of NU/NU mice, with a volume of 0.1 mL/per mice, containing approximately 5.0×10^6 tumor cells, to prepare NU/NU mice Hep3B xenogratf model.
In the vehicle group, the solvents were administered at the same frequency and volume for 14 consecutive days.
4.3 Observation Criteria and Evaluation Criteria • (1) General state observation: all animals were observed once a day during the test period and the abnormalities in various parts of the body and the behavior change situations were recorded. • (2) Body weight: all animals were weighed once before testing and the appropriate body weight of animals were selected for testing. Animals were weighed once a day at a fixed time after initiation of administration for weight monitoring, and body weight statistics were consistent with tumor volume statistics. • (3) Death and moribund: time of death was recorded for dead animals, moribund animals were observed more frequently, and time of death was determined. • (4) Tumor Evaluation
After animal grouping, tumor length and short diameters were measured twice per week. • (1) Tumor volume: V=½×a×b^2 • (2) Relative tumor volume:
[formula] • (3) Relative tumor volume proliferation rate:
[formula] • (4) Tumor growth inhibition rate:
[formula] • Note: V: Tumor volume • a: tumor length; b: tumor width; RTV: relative tumor volume; TVnd: tumor volume on day n; TV0d: tumor volume on day 0; RTVxnd: mean relative tumor volume on day n; TVXn: mean tumor volume on day n in the administrated group; TVX0: mean tumor volume on day 0 in the administrated group; TVMn: mean tumor volume on day n in the solvent (model) group; TVM0: mean tumor volume on day 0 in the solvent (model) group. • (5) Tumor weight
At the end of the test, the animals were sacrificed by cervical dislocation, and a tumor was stripped and weighed.
Data were processed using SPSS 19.0 statistical software. Repeated Measure process analyzed tumor volume changes between groups with multiple measurements over time. Multivariate process compared differences in tumor volume between groups at each measurement. Difference in tumor weight between groups was analyzed by LSD method of One-way ANOVA.

[2] = test system: Hep3B (human hepatocarcinoma cell line) xenograft; conditions: for growth of xenograft tumor (tumor volume) versus vehicle, in words / tumor growth (tumor weight) versus vehicle, in words: at the test dose; for TV(mm3) d16: d16, Mean ± SD; for TV(mm3) d16 / Tumor Weight: n = 6; for TV(mm3) d16 / T/C d16 (%) (relative tumor volume proliferation rate) / TGI d16 (%) (tumor growth inhibition rate) / Tumor Weight / Tumor Weight Inhibition Rate (%): palbociclib 50 mg/kg qd; for Tumor Weight / Tumor Weight Inhibition Rate (%): end of test; for Tumor Weight: Mean ± SD
Description: 36 BALB/c Nude mice, female, 18-20 g in body weight.
Compounds of formula (B), sorafenib tosylate, palbociclib.
Sorafenib tosylate/palbociclib: a solution of castor oil, anhydrous ethanol and ultrapure water in a volume ratio of 1:1:6.
In the solvent group, the solvents were administered at the same frequency and volume for 16 consecutive days.
4.3 Observation Criteria and Evaluation Criteria: Same as Example 2

[3] = compound of formula (B) 5 mg/kg, lenvatinib mesylate 8 mg/kg
[4] = compound of formula (B) 5 mg/kg, lenvatinib mesylate 8 mg/kg, palbociclib 50 mg/kg qd
[5] = d14, compound of formula (B) 5 mg/kg, lenvatinib mesylate 8 mg/kg, palbociclib 50 mg/kg qd
[6] = BALB/c Nude mice, gavage qd 16 days, compound of formula (B) 5 mg/kg, sorafenib tosylate 8 mg/kg, palbociclib 50 mg/kg
[7] = compound of formula (B) 5 mg/kg, sorafenib tosylate 8 mg/kg
[8] = compound of formula (B) 5 mg/kg, sorafenib tosylate 8 mg/kg, listed as palbociclib
[9] = compound of formula (B) 5 mg/kg, sorafenib tosylate 8 mg/kg, listed as sorafenib tosylate

CC(=O)c1c(C)c2cnc(Nc3ccc(N4CCNCC4)cn3)nc2n(C2CCCC2)c1=O [Palbociclib, 6-acetyl-8-cyclopentyl-5-methyl-2-{[5-(piperazin-1-yl)pyridin-2-yl]amino}pyrido[2,3-d]pyrimidin-7 (8H)-one]
Number of Animals (Survived/Total) [1, 3]: 7/7 | growth of tumor (tumor weight) versus vehicle, in words [1]: did not inhibit the growth of tumor | growth of xenograft tumor (tumor volume) versus vehicle, in words [1]: failed to inhibit the growth of xenograft tumor | TV (mm^3) d14 [1, 4]: 948.8 ± 361.2 mm^3 | T/C d14 (%) (relative tumor volume proliferation rate) [1, 5]: 95.8% | TGI d14 (%) (tumor growth inhibition rate) [1, 5]: 11.0% | Tumor Weight [1, 4]: 1.3047 ± 0.4823 g | Tumor Weight Inhibition Rate (%) [1, 4]: 2.1% | Change Rate in Weight (%) [2, 6]: −24.7% | Number of Animals (Survived/Total) [2, 6]: 6/6 | growth of xenograft tumor (tumor volume) versus vehicle, in words [2]: failed to inhibit the growth of xenograft tumor | tumor growth (tumor weight) versus vehicle, in words [2]: failed to inhibit tumor growth | TV(mm3) d16 [2, 7]: 711.6 ± 313.8 mm3 | T/C d16 (%) (relative tumor volume proliferation rate) [2, 7]: 91.3% | TGI d16 (%) (tumor growth inhibition rate) [2, 7]: 31.4% | T/C d16 (%) (relative tumor volume proliferation rate) [2, 8]: 75.1% | TGI d16 (%) (tumor growth inhibition rate) [2, 8]: 44.5% | Tumor Weight [2, 7]: 0.89 ± 0.30 g | Tumor Weight Inhibition Rate (%) [2, 7]: 19.1% | Tumor Weight Inhibition Rate (%) [2, 8]: 46.4%

CNC(=O)c1cc(Oc2ccc(NC(=O)Nc3ccc(Cl)c(C(F)(F)F)c3)cc2)ccn1.Cc1ccc(S(=O)(=O)O)cc1 [Sorafenib Tosylate, 4-{4-[3-(4-chloro-3-trifluoromethyl-phenyl)-acylurea]-phenoxy}-pyridine-2-carboxylic acid methylamide-4-toluenesulfonate]
Change Rate in Weight (%) [2, 6]: −17.5% | growth of xenograft tumor (tumor volume) versus vehicle, in words [2]: failed to inhibit the growth of xenograft tumor | tumor growth (tumor weight) versus vehicle, in words [2]: failed to inhibit tumor growth | TV(mm3) d16 [2, 7]: 717.2 ± 222.7 mm3 | T/C d16 (%) (relative tumor volume proliferation rate) [2, 7]: 84.5% | TGI d16 (%) (tumor growth inhibition rate) [2, 7]: 30.9% | T/C d16 (%) (relative tumor volume proliferation rate) [2, 9]: 91.3% | TGI d16 (%) (tumor growth inhibition rate) [2, 9]: 31.4% | Tumor Weight [2, 7]: 0.79 ± 0.23 g | Tumor Weight Inhibition Rate (%) [2, 7]: 27.8% | Tumor Weight Inhibition Rate (%) [2, 9]: 19.1%

COc1cc2nccc(Oc3ccc(NC(=O)NC4CC4)c(Cl)c3)c2cc1C(N)=O [Lenvatinib Mesylate, 4-[3-chloro-4-(N′-cyclopropylureido)phenoxy]-7-methoxyquinoline-6-carboxamide mesylate]
Number of Animals (Survived/Total) [1, 3]: 7/7 | growth of tumor (tumor weight) versus vehicle, in words [1]: significantly inhibited the growth of the xenograft tumor | growth of xenograft tumor (tumor volume) versus vehicle, in words [1]: significantly inhibited the growth of the xenograft tumor | TV (mm^3) d14 [1, 4]: 533.1 ± 212.6** mm^3 | TGI d14 (%) (tumor growth inhibition rate) [1, 5]: 57.4% | Tumor Weight [1, 4]: 0.5600 ± 0.1923 g | Tumor Weight Inhibition Rate (%) [1, 4]: 58.0%
